Reference: patent publication US20050101595A1, “N-containing cycloalkyl-substituted amino-thiazole derivatives and pharmaceutical compositions for inhibiting cell proliferation and methods for their use” (PFIZER INC., priority 2003, published 2005)
pIC50, pKi: −log10 of the molar value. Counter-ions that a name gives are not always drawn. Like-named read-outs stand apart in the source and are kept apart here.

Assays:
[1] = biological target: human CDK4 and genetically truncated (1-264) cyclin D3 (Homo sapiens, UniProt P11802); assay: Inhibition of CDK4/Cyclin D Retinoblastoma Kinase Activity; type: biochemical; conditions: for pKi: apparent Ki, CDK4/truncated cyclin D3, Rb fragment substrate, 25 μM ATP
In short: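 Apparent Ki values come from competitive or competitive tight-binding inhibition fits of background-corrected 32P/33P incorporation into His-tagged Rb fragment (386-928), captured on nitrocellulose. Reaction: 5 nM insect-cell-expressed human CDK4 with cyclin D3 (1-264), 25 μM ATP, pH 7.4 HEPES, 2% DMSO, 30° C., 20 min, extended to 60 min for tight-binding inhibitors.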

[2] = biological target: CDK2/Cyclin A (Homo sapiens, UniProt P24941); assay: Inhibition of CDK2/Cyclin A Retinoblastoma Kinase Activity; type: biochemical; conditions: for pKi: apparent Ki, CDK2/proteolyzed cyclin A, Rb fragment substrate, 25 μM ATP; for CDK2 % Inhibition At 0.03 μM: Table 2
In short: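 Radiometric filter-binding readout of phosphate transfer to an Rb substrate fragment by purified CDK2/truncated cyclin A at 10 or 19 nM. Run at pH 7.4 with 25 μM ATP, 30 °C, 60–75 min, linear rates; background without enzyme subtracted, Ki from competitive-inhibition models.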

[3] = tested on: HCT-116 cell line; assay: Inhibition of cell growth, tetrazolium salt (MTT) assay; type: cell-based; conditions: for pIC50: Homo sapiens, HCT-116, 120 h, MTT, three to five days, read-out: HCT-116 IC50; for HCT-116 % Inhibition at 0.25 μM: 0.25 μM compound
In short: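 Cells in McCoy's 5A medium were left 4 h, then given graded compound concentrations in 0.5% (v/v) DMSO and incubated three to five days at 37° C (5% CO2). MTT was added to 0.2 mg/mL for 4 h more; DMSO-solubilized formazan was read at 540 nm against 0.5% DMSO-only controls.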

[4] = 0.1 μM compound, HCT-116, Table 4
[5] = 0.1 μM compound, HCT-116, Table 3

human CDK4 and genetically truncated (1-264) cyclin D3, sequence (P11802 whole entry, the tested form may be a part): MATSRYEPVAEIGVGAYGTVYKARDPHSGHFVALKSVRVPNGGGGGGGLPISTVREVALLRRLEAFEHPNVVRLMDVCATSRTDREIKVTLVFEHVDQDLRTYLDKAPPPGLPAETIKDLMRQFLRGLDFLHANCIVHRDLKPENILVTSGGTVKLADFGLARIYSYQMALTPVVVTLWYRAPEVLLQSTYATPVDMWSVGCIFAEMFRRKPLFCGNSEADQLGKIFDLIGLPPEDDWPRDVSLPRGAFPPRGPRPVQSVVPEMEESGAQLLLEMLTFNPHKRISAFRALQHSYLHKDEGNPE
human CDK4 and genetically truncated (1-264) cyclin D3, sequence (P30281 1-264 partner): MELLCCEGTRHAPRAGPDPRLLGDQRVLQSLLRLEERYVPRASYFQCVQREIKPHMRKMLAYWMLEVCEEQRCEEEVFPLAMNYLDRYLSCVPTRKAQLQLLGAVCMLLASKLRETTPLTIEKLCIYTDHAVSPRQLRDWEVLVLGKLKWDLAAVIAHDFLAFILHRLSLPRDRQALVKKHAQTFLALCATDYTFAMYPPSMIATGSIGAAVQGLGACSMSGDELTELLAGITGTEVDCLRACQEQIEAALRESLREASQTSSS

## CC1(C)CN=C(c2ccc(S(=O)(=O)N3CCC(Nc4nc(N)c(C(=O)c5c(F)cccc5F)s4)CC3)cc2)N1 [Example J2, 1-(4-Amino-2-{1-[4-(5,5-dimethyl-4,5-dihydro-1H-imidazol-2-yl)-benzenesulfonyl]-piperidin-4-ylamino}-thiazol-5-yl)-1-(2,6-difluoro-phenyl)-methanone]
[1]
  pKi: 9.74
[2]
  pKi: > 9.00
[3]; first HCT-116 column (c4)
  pIC50: 6.30
[3]; second HCT-116 column (c5)
  pIC50: 5.74

## Nc1nc(NC2CCN(C(=O)CCc3ccccc3)CC2)sc1C(=O)c1c(F)cccc1F [Example Q48]
[1]; 0.03 μM compound, Table 4
  CDK4 % Inhibition at 0.03 μM: 48%
[2]; 0.03 μM compound, Table 4
  CDK2 % Inhibition at 0.03 μM: 5%
[3]; [4]
  HCT-116 % Inhibition at 0.1 μM: 0%
[3]; HCT-116, Table 4
  HCT-116 % Inhibition at 0.25 μM: 19%

## Nc1nc(NC2CCN(S(=O)(=O)c3cc(OCC(F)(F)F)ccc3OCC(F)(F)F)CC2)sc1C(=O)c1c(F)cccc1F [Example P54]
[1]; 0.03 μM compound, Table 3
  CDK4 % Inhibition at 0.03 μM: 34%
[2]; 0.03 μM compound, Table 3
  CDK2 % Inhibition at 0.03 μM: 17%
[3]; [5]
  HCT-116 % Inhibition at 0.1 μM: 22%
[3]; HCT-116, Table 3
  HCT-116 % Inhibition at 0.25 μM: 23%

## Nc1nc(NC2CCN(C(=O)C(c3ccccc3)c3ccccc3)CC2)sc1C(=O)c1c(F)cccc1F [Example R1]
[1]; at 0.03 μM
  CDK4 % Inhibition at 0.03 μM: 3%
[2]; at 0.03 μM
  CDK2 % Inhibition at 0.03 μM: −34%
[3]; HCT-116 cells, at 0.1 μM
  HCT-116 % Inhibition at 0.1 μM: 0%
[3]; HCT-116 cells
  HCT-116 5 Inhibition at 0.25 μM: 32

## COc1ccc(OC)c(CC(=O)N2CCC(Nc3nc(N)c(C(=O)c4c(F)cccc4F)s3)CC2)c1 [Example Q78]
[1]; 0.03 μM compound, Table 4
  CDK4 % Inhibition at 0.03 μM: 46%
[2]; 0.03 μM compound, Table 4
  CDK2 % Inhibition at 0.03 μM: 39%
[3]; [4]
  HCT-116 % Inhibition at 0.1 μM: 0.43%
[3]; HCT-116, Table 4
  HCT-116 % Inhibition at 0.25 μM: 37%

## Nc1nc(NC2CCN(C(=O)Nc3ccc(Br)cc3)CC2)sc1C(=O)c1c(F)cccc1F [Example O18]
[1]; 0.03 μM compound, Table 2
  CDK4 % Inhibition at 0.03 μM: 9%
[2]; 0.03 μM compound
  CDK2 % Inhibition At 0.03 μM: 27%
[3]; HCT-116, Table 2
  HCT-116 % Inhibition at 0.25 μM: 20%

## COc1cc(C(=O)N2CCC(Nc3nc(N)c(C(=O)c4c(F)cccc4F)s3)CC2)ccc1C [Example D12, 1-[4-Amino-2-{1-[-(3-methoxy-4-methyl-phenyl)-methanoyl]-piperidin-4-ylamino}-thiazol-5-yl)-1-(2,6-difluoro-phenyl)-methanone Trifluoroacetic Acid Salt]
[1]
  pKi: 7.85
[2]
  pKi: 7.54
[3]; first HCT-116 column (c4)
  pIC50: 6.92
[3]; second HCT-116 column (c5)
  pIC50: 6.49

## Nc1nc(NC2CCN(C(=O)c3ccccc3Cl)CC2)sc1C(=O)c1c(F)cccc1F [Example Q13]
[1]; 0.03 μM compound, Table 4
  CDK4 % Inhibition at 0.03 μM: 48%
[2]; 0.03 μM compound, Table 4
  CDK2 % Inhibition at 0.03 μM: 13%
[3]; [4]
  HCT-116 % Inhibition at 0.1 μM: 5%
[3]; HCT-116, Table 4
  HCT-116 % Inhibition at 0.25 μM: 43%

## COc1ccc(C(=O)N2CCC(Nc3nc(N)c(C(=O)c4c(F)cccc4F)s3)CC2)cc1OC [Example Q21]
[1]; 0.03 μM compound, Table 4
  CDK4 % Inhibition at 0.03 μM: 14%
[2]; 0.03 μM compound, Table 4
  CDK2 % Inhibition at 0.03 μM: −23%
[3]; [4]
  HCT-116 % Inhibition at 0.1 μM: 16%
[3]; HCT-116, Table 4
  HCT-116 % Inhibition at 0.25 μM: 51%

## CC(C)S(=O)(=O)N1CCC(Nc2nc(N)c(C(=O)c3c(F)cccc3F)s2)CC1 [Example F11, 1-{4-Amino-2-[1-(propane-2-sulfonyl)-piperidin-4-ylamino]-thiazol-5-yl}-1-(2,6-difluoro-phenyl)-methanone]
[1]
  pKi: 8.96
[2]
  pKi: 8.80
[3]; first HCT-116 column (c4)
  pIC50: 6.74
[3]; second HCT-116 column (c5)
  pIC50: 6.35

## Nc1nc(NC2CCN(S(=O)(=O)c3cccc(Cl)c3Cl)CC2)sc1C(=O)c1c(F)cccc1F [Example P39]
[1]; 0.03 μM compound, Table 3
  CDK4 % Inhibition at 0.03 μM: 42%
[2]; 0.03 μM compound, Table 3
  CDK2 % Inhibition at 0.03 μM: 24%
[3]; [5]
  HCT-116 % Inhibition at 0.1 μM: 0%
[3]; HCT-116, Table 3
  HCT-116 % Inhibition at 0.25 μM: 25%

## CC1CC1C(=O)N1CCC(Nc2nc(N)c(C(=O)c3c(F)cccc3F)s2)CC1 (stereo not drawn) [Example R93]
[1]; at 0.03 μM
  CDK4 % Inhibition at 0.03 μM: −1%
[2]; at 0.03 μM
  CDK2 % Inhibition at 0.03 μM: −10%
[3]; HCT-116 cells, at 0.1 μM
  HCT-116 % Inhibition at 0.1 μM: 0%
[3]; HCT-116 cells
  HCT-116 5 Inhibition at 0.25 μM: 42

## Nc1nc(NC2CCN(C(=O)NCCCl)CC2)sc1C(=O)c1c(F)cccc1F [Example O32]
[1]; 0.03 μM compound, Table 2
  CDK4 % Inhibition at 0.03 μM: 12%
[2]; 0.03 μM compound
  CDK2 % Inhibition At 0.03 μM: 30%
[3]; HCT-116, Table 2
  HCT-116 % Inhibition at 0.25 μM: 99%

## CCCc1c(C(=O)N2CCC(Nc3nc(N)c(C(=O)c4c(F)cccc4F)s3)CC2)cnn1-c1ccccc1 [Example R71]
[1]; at 0.03 μM
  CDK4 % Inhibition at 0.03 μM: 51%
[2]; at 0.03 μM
  CDK2 % Inhibition at 0.03 μM: 33%
[3]; HCT-116 cells, at 0.1 μM
  HCT-116 % Inhibition at 0.1 μM: 0%
[3]; HCT-116 cells
  HCT-116 5 Inhibition at 0.25 μM: 44
